The target of assay [1] is T1, Melanocortin receptor 4 (Homo sapiens, UniProt P32245). In words: Binding affinity against human Melanocortin-4 receptor.
For assay [2], the target named is Melanocortin receptor 5 (Homo sapiens, UniProt P33032). The assay can be described thus: Binding affinity against human Melanocortin 5 receptor.
Assay [3] has as its target Melanocortin receptor 3 (Homo sapiens, UniProt P41968). The assay can be described thus: Binding affinity for human Melanocortin-3 receptor.
Assay [4] addresses T1, Melanocortin receptor 4. In words: Agonist activity against human Melanocortin-4 receptor. In kind it is functional.

The structures appear in SMILES notation. Positions of bridges follow the written chain, without caps; N, C: chain ends. Non-standard residues stand in square brackets, D forms with d. Residues, ends and D or L forms follow the SMILES beside them. d2Nal = N[C@H](Cc1ccc2ccccc2c1)C(=O)O

T1 sequence (P32245 whole entry): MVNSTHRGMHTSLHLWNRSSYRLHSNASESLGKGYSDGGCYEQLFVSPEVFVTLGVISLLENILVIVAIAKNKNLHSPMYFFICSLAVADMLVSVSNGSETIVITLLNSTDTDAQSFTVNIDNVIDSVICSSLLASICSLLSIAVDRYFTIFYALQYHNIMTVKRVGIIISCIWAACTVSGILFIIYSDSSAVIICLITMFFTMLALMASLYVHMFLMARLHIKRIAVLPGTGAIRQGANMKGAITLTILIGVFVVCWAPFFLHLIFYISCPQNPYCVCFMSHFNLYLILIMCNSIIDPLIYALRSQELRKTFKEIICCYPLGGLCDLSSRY
Chain of Melanocortin receptor 5 (P33032 whole entry): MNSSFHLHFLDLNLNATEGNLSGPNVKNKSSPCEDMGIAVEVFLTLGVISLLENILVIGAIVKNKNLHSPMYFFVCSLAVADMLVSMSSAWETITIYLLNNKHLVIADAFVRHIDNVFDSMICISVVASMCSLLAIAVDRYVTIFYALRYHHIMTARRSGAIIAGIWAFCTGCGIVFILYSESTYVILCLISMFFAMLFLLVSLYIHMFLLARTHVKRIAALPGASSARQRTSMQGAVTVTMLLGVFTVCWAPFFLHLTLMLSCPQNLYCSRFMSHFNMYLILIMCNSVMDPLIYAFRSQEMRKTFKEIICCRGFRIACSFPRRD
Chain of Melanocortin receptor 3 (P41968 whole entry): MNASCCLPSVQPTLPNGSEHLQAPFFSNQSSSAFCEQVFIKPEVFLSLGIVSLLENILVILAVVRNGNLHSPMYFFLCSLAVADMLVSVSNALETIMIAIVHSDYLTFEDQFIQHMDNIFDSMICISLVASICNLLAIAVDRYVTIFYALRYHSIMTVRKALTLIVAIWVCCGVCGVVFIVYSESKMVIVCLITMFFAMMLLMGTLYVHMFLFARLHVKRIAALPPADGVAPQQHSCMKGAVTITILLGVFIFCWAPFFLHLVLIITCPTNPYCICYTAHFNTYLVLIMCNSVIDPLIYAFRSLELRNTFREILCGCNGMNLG

As for `CC(=O)N[C@H]1CSSC[C@@H](C(=O)N2CCC[C@H]2C(=O)N2CCC[C@H]2C(=O)N[C@@H](CCCCN)C(=O)N[C@@H](CC(=O)O)C(N)=O)NC(=O)CNC(=O)[C@H](Cc2c[nH]c3ccccc23)NC(=O)[C@H](CCCNC(=N)N)NC(=O)[C@@H](Cc2ccc3ccccc3c2)NC(=O)[C@H](Cc2c[nH]cn2)NC(=O)[C@H](CCC(=O)O)NC1=O` (Ac-CEH[d2Nal]RWGCPPKD-NH2; disulfide 1-8), the IC50 (commonly the midpoint of a concentration-inhibition curve) in assay [1] turned out to be 1.5 nM; in assay [2], 16 nM; in assay [3] it was 25 nM.
For `N=C(N)NCCC[C@@H]1NC(=O)[C@@H](Cc2cccc3ccccc23)NC(=O)CCC(=O)NCCCC[C@@H](C(N)=O)NC(=O)[C@H](Cc2c[nH]c3ccccc23)NC1=O`, the IC50 came to 0.5 nM in assay [1], 540 nM in assay [2] and 150 nM in assay [3]. In assay [2], the EC50 (in general, the concentration needed to bring the measured effect to its halfway point) is 530 nM.
As for `CC(=O)[C@@H]1CSSC[C@@H](C(=O)N2CCC[C@H]2C(=O)CN2CCC[C@H]2C(=O)CN[C@@H](CCCCN)C(=O)CN[C@@H](CC(=O)O)C(N)=O)NC(=O)CNC(=O)[C@@H](Cc2c[nH]c3ccccc23)NC(=O)[C@H](CCCN=C(N)N)NC(=O)[C@H](Cc2ccc3ccccc3c2)NC(=O)[C@H](Cc2c[nH]cn2)NC(=O)[C@@H](CCC(=O)O)NC1=O`, the Activity in assay [4] was 0%.

The values above are taken from ChEMBL document CHEMBL1135658, “Structure-activity studies of the melanocortin peptides: discovery of potent and selective affinity antagonists for the hMC3 and hMC4 receptors” (J Med Chem, 2002).
